Measured values reported in PubChem BioAssay (NCI).
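Protocol summary: plate cells (96-well), add compound at 5 concentrations, incubate 48 h, interpolate endpoints linearly. The concentration for 50% growth inhibition is given as GI50. TGI denotes the concentration required for complete inhibition of growth.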

Legend:
Assay in all cases: inhibition of tumour cell growth, NCI panel, 48 h
786-0 renal = test system: 786-0 renal
A498 renal = test system: A498 renal
A549 NSCLC = test system: A549 NSCLC
ACHN renal = test system: ACHN renal
BT-549 breast = test system: BT-549 breast
CAKI-1 renal = test system: CAKI-1 renal
CCRF-CEM leukemia = test system: CCRF-CEM leukemia
COLO 205 colon = test system: COLO 205 colon
DU-145 prostate = test system: DU-145 prostate
EKVX NSCLC = test system: EKVX NSCLC
HCC-2998 colon = test system: HCC-2998 colon
HCT-116 colon = test system: HCT-116 colon
HCT-15 colon = test system: HCT-15 colon
HL-60(TB) leukemia = test system: HL-60(TB) leukemia
HOP-62 NSCLC = test system: HOP-62 NSCLC
HOP-92 NSCLC = test system: HOP-92 NSCLC
HS 578T breast = test system: HS 578T breast
HT29 colon = test system: HT29 colon
IGROV1 ovarian = test system: IGROV1 ovarian
K-562 leukemia = test system: K-562 leukemia
KM12 colon = test system: KM12 colon
LOX IMVI melanoma = test system: LOX IMVI melanoma
M14 melanoma = test system: M14 melanoma
MALME-3M melanoma = test system: MALME-3M melanoma
MCF7 breast = test system: MCF7 breast
MDA-MB-231 breast = test system: MDA-MB-231 breast
MDA-MB-435 = test system: MDA-MB-435
MDA-MB-468 breast = test system: MDA-MB-468 breast
MOLT-4 leukemia = test system: MOLT-4 leukemia
NCI-H226 lung = test system: NCI-H226 lung

## O=C(Nc1ccc(OCc2ccc(Cl)cc2)cc1)Nc1ccc(Cl)c(C(F)(F)F)c1
786-0 renal
  GI50: 4.09 µM
  TGI: 13.3 µM
A498 renal
  GI50: 1.96 µM
  TGI: 5.21 µM
A549 NSCLC
  GI50: 2.19 µM
  TGI: 8.07 µM
ACHN renal
  GI50: 2.37 µM
  TGI: 7.62 µM
BT-549 breast
  GI50: 2.37 µM
  TGI: 5.63 µM
CAKI-1 renal
  GI50: 2.31 µM
  TGI: 6.83 µM
CCRF-CEM leukemia
  GI50: 3.05 µM
  TGI: 79.6 µM
COLO 205 colon
  GI50: 1.97 µM
  TGI: 4.23 µM
DU-145 prostate
  GI50: 2.83 µM
  TGI: 10.7 µM
EKVX NSCLC
  GI50: 2.18 µM
  TGI: 5.95 µM
HCC-2998 colon
  GI50: 2.89 µM
  TGI: 11.7 µM
HCT-116 colon
  GI50: 1.87 µM
  TGI: 7.71 µM
HCT-15 colon
  GI50: 1.87 µM
  TGI: 10.6 µM
HL-60(TB) leukemia
  GI50: 2.33 µM
  TGI: 7.07 µM
HOP-62 NSCLC
  GI50: 2.64 µM
  TGI: 8.18 µM
HOP-92 NSCLC
  GI50: 1.96 µM
  TGI: 5.37 µM
HS 578T breast
  GI50: 2.27 µM
  TGI: 6.7 µM
HT29 colon
  GI50: 2.78 µM
  TGI: 10.2 µM
IGROV1 ovarian
  GI50: 3.25 µM
  TGI: 13.5 µM
K-562 leukemia
  GI50: 1.72 µM
  TGI: 65.7 µM
KM12 colon
  GI50: 2.62 µM
  TGI: 9.32 µM
LOX IMVI melanoma
  GI50: 1.85 µM
  TGI: 3.57 µM
M14 melanoma
  GI50: 2.8 µM
  TGI: 12.1 µM
MALME-3M melanoma
  GI50: 1.75 µM
  TGI: 4.51 µM
MCF7 breast
  GI50: 1.95 µM
  TGI: 5.96 µM
MDA-MB-231 breast
  GI50: 2.45 µM
  TGI: 6.88 µM
MDA-MB-435
  GI50: 2.59 µM
  TGI: 8.51 µM
MDA-MB-468 breast
  GI50: 1.54 µM
  TGI: 4.41 µM
MOLT-4 leukemia
  GI50: 3.02 µM
  TGI: 27.2 µM
NCI-H226 lung
  GI50: 2 µM
